Data from patent US6558671B1, “Cysteine-depleted peptides recognized by A3-restricted cytotoxic lymphocytes, and uses therefor” (The University of Virginia Patent Foundation, priority 1997, dated 2003).
“Also recorded” adds a separate entry of the source. Where two headings read alike, the source gives them in different places. Each block holds one sequence with its values, some of them ahead of it.

Tests used:
[1] = tested on: HLA-A1-restricted VMM15 CTL; assay: 4-hour chromium release assay, peptide-pulsed C1R-A1 targets with VMM15 CTL; assay type: cell-based, human; settings: for reconstitution of an epitope for VMM15 CTL / recognition by VMM15 CTL: C1R-A1 cells pulsed with synthetic peptide at 0.1 to 10 uM, FIG. 3; for recognition by VMM15 CTL in peptide screening: screen of tyrosinase peptides matching the HLA-A1 motif, one experiment with 48 peptides; for CTL recognition compared with the wild-type peptide: alanine or serine substituted peptides, FIG. 8; for recognition of peptide-pulsed C1R-A1 cells in dose-titration assay: HPLC-purified peptides, FIG. 7
VMM12 CTL = assay: 4-hour chromium release assay, peptide-pulsed C1R-A1 targets with VMM12 CTL; assay type: cell-based, human; settings: C1R-A1 cells pulsed with peptide at 1 to 0.01 μM; FIG. 4
VMM15 CTL = assay: Cold target inhibition assay with VMM15 CTL; assay type: cell-based, human; settings: for inhibition of lysis of labeled peptide-pulsed targets by unlabeled targets pulsed with the peptide: VMM15 EBV targets pulsed at 20 μg/ml, effector-to-labeled target ratio 10:1, FIG. 9
Experimental: FIG. 9. […] (SEQ ID NO:73) for recognition by VMM15 CTL. […] (SEQ ID NO:79), or no peptide, as indicated. Increasing numbers of these various unlabeled targets were pre-incubated with VMM15 CTL for 1 hour at 37° C. Labeled (hot) targets were then added for an additional 4 hour co-culture at a final effector-to-labeled target ratio of 10:1.
(SEQ ID NO:19), and because of the similar dose-titration curves observed for CTL recognition (FIG. […] (SEQ ID NO:19)) of both peptides adopt a similar conformation when bound to HLA-A1. A cold target inhibition assay was performed with peptide-pulsed target cells to test that hypothesis.

H-Y specific CTL = settings: cited from earlier work
[2] = C1R-A1 targets, E:T 25:1, FIG. 8A, read-out: half-maximal lysis, nonamer

Sequence: DAEKCDICTDEY
reconstitution of an epitope for VMM15 CTL / recognition by VMM15 CTL [1]: recognized; also recorded: reconstituted
EC50 ([1]; C1R-A1 targets, E:T 10:1, FIG. 8B, read-out: half-maximal sensitization of target cells for lysis, dodecamer): 10000 nM
recognition by VMM15 CTL in peptide screening [1]: recognized
reconstitution of an epitope for VMM12 CTL (VMM12 CTL): reconstituted an epitope for these VMM12 CTL, although weakly
inhibition of lysis of peptide-pulsed targets by cold wild-type VMM15 tumor cells (VMM15 CTL; targets pulsed with peptide at 50 μg/ml): can be inhibited

Sequence: DAEKSDICTDEY [dodecamer with serine replacing the more N-terminal cysteine]
inhibition of lysis of labeled peptide-pulsed targets by unlabeled targets pulsed with the peptide (VMM15 CTL): competes

EC50 [1, 2]: 2 nM
Sequence: KSDICTDEY [nonamer with serine replacing the cysteine at position 2]
CTL recognition compared with the wild-type peptide [1]: significantly greater recognition
inhibition of lysis of labeled peptide-pulsed targets by unlabeled targets pulsed with the peptide (VMM15 CTL): similarly inhibited

Sequence: FIDSYICQV
effect of cysteinylation of the cysteine on recognition (H-Y specific CTL): improving recognition by one clone, and reducing recognition by another

Sequence: KCDISTDEY [nonamer with serine substituted for the cysteine distal to the N-terminus]
CTL recognition compared with the wild-type peptide [1]: not discernibly more effective than the wild-type peptide

Sequence: DAEKCDIATDEY [dodecamer with alanine substituted for the cysteine at position 8]
CTL recognition compared with the wild-type peptide [1]: prevented recognition at every concentration tested

EC50 ([1]; C1R-A1 targets, E:T 10:1, FIG. 8B, read-out: half-maximal lysis, dodecamer): ~100 nM
Sequence: DAEKADICTDEY [dodecamer with alanine replacing the cysteine at position 5]
CTL recognition compared with the wild-type peptide [1]: significantly greater recognition

Sequence: KCDIATDEY [nonamer with alanine substituted for the cysteine distal to the N-terminus]
CTL recognition compared with the wild-type peptide [1]: not discernibly more effective than the wild-type peptide

EC50 ([1]; Example A1-1, read-out: half-maximal lysis): ~1000 nM
Sequence: KCDICTDEY
reconstitution of an epitope for VMM15 CTL / recognition by VMM15 CTL [1]: reconstitutes an epitope for VMM15 CTL; also recorded: most effective; also recorded: reconstituted
half-maximal lysis ([1]; Example A1-1): approximately 1 ug/ml
recognition of peptide-pulsed C1R-A1 cells in dose-titration assay ([1]; E:T 25:1): equally reactive
recognition by VMM15 CTL in peptide screening [1]: recognized

Sequence: EKCDICTDEY
reconstitution of an epitope for VMM15 CTL / recognition by VMM15 CTL [1]: recognized; also recorded: reconstituted
recognition of peptide-pulsed C1R-A1 cells in dose-titration assay ([1]; E:T 25:1): equally reactive
recognition by VMM15 CTL in peptide screening [1]: recognized

EC50 [1, 2]: 20 nM
Sequence: KADICTDEY [nonamer with alanine replacing the cysteine at position 2]
CTL recognition compared with the wild-type peptide [1]: significantly greater recognition
